Results: patent US20240208909A1, “SUBSTITUTED QUINOLINE DERIVATIVES HAVING SOS1 INHIBITION ACTIVITIES AND USES THEREOF” (Accutar Biotechnology Inc., priority 2022, published 2024)

What was measured:
SOS1/KRAS-G12D = SOS1/KRAS-G12D (Homo sapiens (Human), UniProt Q07889); assay: SOS1/KRAS-G12D binding inhibition assay (AlphaScreen); details: GST-SOS1 and 6*His KRAS-G12D, read-out: KrasG12D/SOS1 binding IC50
Protocol: Example 22: SOS1/KRAS-G12D Binding Inhibition Assay
SOS1 binding affinity of candidate compounds was measured by monitoring the interaction of SOS1 with KRAS-G12D in the presence of the test compound. Briefly, 5 nM GST tagged SOS1 proteins (final concentration) were pre-incubated with 50 nM 6*His tagged KRAS-G12D proteins (final concentration) in an assay buffer containing 10 mM HEPES, pH 7.4, 150 mM NaCl, 1 mM DTT, 5 mM MgCl2, 0.1% Tween-20, and 0.05% BSA for 30 minutes. The test compounds in 2% DMSO (final concentration) at various concentrations were then added to the reaction mixture and incubated for another 30 minutes at 4° C. 5 ug/ml GSH AlphaScreen donor beads (PerkinElmer, 6765300) and 5 ug/ml nickel chelate (Ni-NTA) AlphaScreen acceptor beads (PerkinElmer, 6760619C) (final concentrations) were then added to the mixture. After an incubation of 2 hours at 4° C., the fluorescent signals were obtained on the EnVision® 2105 Multilabel Plate Reader (PerkinElmer).
Raw AlphaScreen data were converted to a percentage of inhibition (relative to DMSO) using the following equations: • a) For a given test compound concentration X:
Signal (X)=Signal (SOS1 & KRAS-G12D & compound)-Signal (buffer & KRAS-G12D & compound)
Percentage of inhibition at concentration X=[1−Signal (X)/Signal (DMSO)]*100% b)
The IC50 values were determined by nonlinear regression of plots of [inhibitor] vs. percentage of inhibition with variable slope, analyzed using GraphPad Prism 9.

[1] = system: Phospho-ERK1/2 in DLD1 cells; assay: Phospho-ERK1/2 expression inhibition in DLD1 cells; assay type: cell-based; details: Homo sapiens, DLD-1, 4 hours, read-out: DLD1 pERK IC50
Protocol: Example 23: Phospho-ERK1/2 Expression Inhibition in DLD1 Cells
DLD1 cells were obtained from American Type Culture Collection (ATCC). DLD1 cells were plated in 96-well plates (VWR #10062-900, or Corning #3904) in 90 uL culture medium at a density of 15,000 cells/well in the RPM11640 growth medium containing 10% FBS and 1% Penicillin Streptomycin, and then incubated at 37° C. overnight. The following day, the test compound was administered to the cells by using 1000×x compound stock solution prepared in DMSO at various concentrations. 1000× compound stock solution was first diluted in culturing medium to 10×, then 10 uL compound medium was added to each well in the cell plates. After administration of the compound, the cells were then incubated at 37° C. for 4 hours. Upon completion, the cells were washed with PBS briefly. 150 uL/well of 4% formaldehyde was added and the plates were incubated at room temperature for 20 mins. The cells were washed with PBS briefly, and permeabilized with 150 uL/well of ice cold 100% methanol for 10 mins. The cells were washed with PBS briefly and blocked with 100 uL/well LI-COR blocking buffer for 1 hr at room temperature with gentle shaking. The cells were incubated overnight at 4° C. with 50 uL primary antibody rabbit anti-Phospho-ERK1/2 (1: 500, Cell Signaling, #4370) diluted in Intercept Blocking Buffer (LI-COR, #927-60001) containing 0.1% Tween 20. The next day, the cells were washed with 200 uL PBS containing 0.1% Tween 20, 5×5 mins at room temperature with gentle shaking, and incubated with 50 uL secondary antibody, IRDye® 800CW Goat anti-Rabbit IgG (LI-COR, #926-32211), 1:1000, in LI-COR blocking buffer with 0.2% Tween 20 for 1 hr at room temperature with gentle shaking. The cells were washed with 200 uL PBS containing 0.1% Tween 20, 5×5 mins at room temperature with gentle shaking. The cells were washed with PBS for 5 mins. 100 uL fresh PBS was added to each well and the plates were imaged on a LI-COR Odyssey CLX plate reader.

K562 cells = assay: Cell growth inhibition of K562 cells (CellTiter-Glo); assay type: cell-based; details: Homo sapiens, 120 h, 5 days
Protocol: Example 24: Cell Growth Inhibition of K562 Cells
K562 cells were obtained from American Type Culture Collection (ATCC). For cell growth assay, K562 cells were seeded in 96-well plates at 1000 cells/well in 90 μl of RPM11640 growth medium containing 10% FBS and 1% Penicillin Streptomycin, and then incubated at 37° C. for 1 hour. The test compound was administered to the cells by using 1000× compound stock solution prepared in DMSO at various concentrations. 1000× compound stock solution was first diluted in culturing medium to 10×, then 10 uL compound medium was added to each well in the cell plates. After administration of the compound, the cells were then incubated at 37° C. for 5 days. Upon completion, the plates were equilibrated at room temperature for approximately 10 minutes. 100 ul of CellTiter-Glo® Reagent (Promega) was added to each well. The plates were then incubated at room temperature for 10 minutes and luminescence was recorded by EnSpire plate reader (PerkinElmer).

SOS1/KRAS-G12D, sequence (Q07889 564-1049 limits assumed): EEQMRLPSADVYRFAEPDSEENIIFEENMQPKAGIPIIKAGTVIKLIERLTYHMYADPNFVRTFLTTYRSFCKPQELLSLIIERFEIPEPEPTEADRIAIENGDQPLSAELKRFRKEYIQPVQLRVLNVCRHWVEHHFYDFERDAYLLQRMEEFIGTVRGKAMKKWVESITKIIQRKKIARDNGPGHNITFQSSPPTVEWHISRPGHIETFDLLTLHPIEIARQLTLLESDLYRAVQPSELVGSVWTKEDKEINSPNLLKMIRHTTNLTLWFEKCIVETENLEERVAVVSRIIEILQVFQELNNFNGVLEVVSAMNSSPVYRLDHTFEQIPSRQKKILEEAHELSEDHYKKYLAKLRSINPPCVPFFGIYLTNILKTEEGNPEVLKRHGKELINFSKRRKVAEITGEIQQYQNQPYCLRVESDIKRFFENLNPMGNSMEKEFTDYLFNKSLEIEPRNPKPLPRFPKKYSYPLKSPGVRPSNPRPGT

| Structure (SMILES) | IC50 (SOS1/KRAS-G12D) | IC50 [1] | GI50 (K562 cells) |
| --- | --- | --- | --- |
| CO[C@]1(c2ccc3nccc(N[C@H](C)c4cccc(C(F)F)c4F)c3c2)CCN(C(C)=O)C1 [Compound 76, 1-((S)-3-(4-(((R)-1-(3-(difluoromethyl)-2-fluorophenyl)ethyl)amino)quinolin-6-yl)-3-methoxypyrrolidin-1-yl)ethan-1-one] | ≤ 10 nM | ≤ 150 nM | ≤ 100 nM |
| Cc1cc(N[C@H](C)c2cccc(C(F)(F)F)c2C)c2cc(N3CCNCC3)ccc2n1 [Compound 1, (R)-2-methyl-N-(1-(2-methyl-3-(trifluoromethyl)phenyl)ethyl)-6-(piperazin-1-yl)quinolin-4-amine] | 10 to 100 nM | > 500 nM | > 500 nM |
| COc1cc2nccc(N[C@H](C)c3cccc(C(F)(F)F)c3C)c2cc1N1CCNCC1 [Compound 55, (R)-7-methoxy-N-(1-(2-methyl-3-(trifluoromethyl)phenyl)ethyl)-6-(piperazin-1-yl)quinolin-4-amine] | 10 to 100 nM | > 500 nM | > 500 nM |
| CO[C@]1(c2ccc3nccc(N[C@H](C)c4cccc(C(F)F)c4F)c3c2)CCN(C(=O)N(C)C)C1 [Compound 98, (S)-3-(4-(((R)-1-(3-(difluoromethyl)-2-fluorophenyl)ethyl)amino)quinolin-6-yl)-3-methoxy-N,N-dimethylpyrrolidine-1-carboxamide] | ≤ 10 nM | > 500 nM | 100 to 500 nM |
| Cc1c([C@@H](C)Nc2ccnc3ccc(N4CCNC5(CC5)C4)cc23)cccc1C(F)(F)F [Compound 69, (R)-N-(1-(2-methyl-3-(trifluoromethyl)phenyl)ethyl)-6-(4,7-diazaspiro[2.5]octan-7-yl)quinolin-4-amine] | 10 to 100 nM | > 500 nM | 100 to 500 nM |
| Cc1c([C@@H](C)Nc2ccnc3ccc(N4CCN(C(=O)C5CCOC5)CC4)cc23)cccc1C(F)(F)F (stereo partly drawn) [Compound 6, (4-(4-(((R)-1-(2-methyl-3-(trifluoromethyl)phenyl)ethyl)amino)quinolin-6-yl)piperazin-1-yl)(tetrahydrofuran-3-yl)methanone] | 10 to 100 nM | 150 to 500 nM | 100 to 500 nM |
| CC(=O)N1CCN(c2ccc3nccc(N[C@H](C)c4cccc(C(F)(F)F)c4C)c3c2)CC1 [Compound 27, (R)-1-(4-(4-((1-(2-methyl-3-(trifluoromethyl)phenyl)ethyl)amino)quinolin-6-yl)piperazin-1-yl)ethan-1-one] | 10 to 100 nM | > 500 nM | > 500 nM |
| COc1cc2nccc(N[C@H](C)c3cccc(C(F)F)c3F)c2cc1C1(OC)CCN(C(C)=O)CC1 [Compound 73, (R)-1-(4-(4-((1-(3-(difluoromethyl)-2-fluorophenyl)ethyl)amino)-7-methoxyquinolin-6-yl)-4-methoxypiperidin-1-yl)ethan-1-one] | ≤ 10 nM | > 500 nM | > 500 nM |
| C[C@@H](Nc1ccnc2ccc(N3CC[C@@H](NC(=O)OC(C)(C)C)C3)cc12)c1cccc(C(F)F)c1F [Compound 8, tert-butyl ((R)-1-(4-(((R)-1-(3-(difluoromethyl)-2-fluorophenyl)ethyl)amino)quinolin-6-yl)pyrrolidin-3-yl)carbamate] | 10 to 100 nM | 150 to 500 nM | > 500 nM |
| CO[C@@]1(c2ccc3nccc(N[C@H](C)c4cccc(C(F)F)c4F)c3c2)CCN(C(=O)N(C)C)C1 [Compound 99, (R)-3-(4-(((R)-1-(3-(difluoromethyl)-2-fluorophenyl)ethyl)amino)quinolin-6-yl)-3-methoxy-N,N-dimethylpyrrolidine-1-carboxamide] | ≤ 10 nM | 150 to 500 nM | ≤ 100 nM |
| Cc1c([C@@H](C)Nc2ccnc3ccc(N4CCN(C(=O)C5CCCO5)CC4)cc23)cccc1C(F)(F)F (stereo partly drawn) [Compound 53, (4-(4-(((R)-1-(2-methyl-3-(trifluoromethyl)phenyl)ethyl)amino)quinolin-6-yl)piperazin-1-yl)(tetrahydrofuran-2-yl)methanone] | 10 to 100 nM | > 500 nM | 100 to 500 nM |
| CC(C)C(=O)N1CCC(F)(c2ccc3nccc(N[C@H](C)c4cccc(C(F)F)c4F)c3c2)CC1 [Compound 81, (R)-1-(4-(4-((1-(3-(difluoromethyl)-2-fluorophenyl)ethyl)amino)quinolin-6-yl)-4-fluoropiperidin-1-yl)-2-methylpropan-1-one] | ≤ 10 nM | ≤ 150 nM | ≤ 100 nM |
| C[C@@H](Nc1ccnc2ccc(N3CC[C@H](N)C3)cc12)c1cccc(C(F)F)c1F [Compound 18, 6-((S)-3-aminopyrrolidin-1-yl)-N-((R)-1-(3-(difluoromethyl)-2-fluorophenyl)ethyl)quinolin-4-amine] | 10 to 100 nM | > 500 nM | > 500 nM |
| CC(=O)N[C@@H]1CCN(c2ccc3nccc(N[C@H](C)c4cccc(C(F)F)c4F)c3c2)C1 [Compound 11, N-((R)-1-(4-(((R)-1-(3-(difluoromethyl)-2-fluorophenyl)ethyl)amino)quinolin-6-yl)pyrrolidin-3-yl)acetamide] | 10 to 100 nM | 150 to 500 nM | ≤ 100 nM |
| CC(=O)N1CC[C@](F)(c2ccc3nccc(N[C@H](C)c4cccc(C(F)F)c4F)c3c2)C1 [Compound 85, 1-((S)-3-(4-(((R)-1-(3-(difluoromethyl)-2-fluorophenyl)ethyl)amino)quinolin-6-yl)-3-fluoropyrrolidin-1-yl)ethan-1-one] | ≤ 10 nM | > 500 nM | 100 to 500 nM |
| CC(=O)N1CCC(O)(c2ccc3nccc(N[C@H](C)c4cccc(C(F)F)c4F)c3c2)CC1 [Compound 40, (R)-1-(4-(4-((1-(3-(difluoromethyl)-2-fluorophenyl)ethyl)amino)quinolin-6-yl)-4-hydroxypiperidin-1-yl)ethan-1-one] | ≤ 10 nM | 150 to 500 nM | ≤ 100 nM |
| Cc1c([C@@H](C)Nc2ccnc3ccc(N4CCn5ncnc5C4)cc23)cccc1C(F)(F)F [Compound 25, (R)-6-(5,6-dihydro-[1,2,4]triazolo[1,5-a]pyrazin-7(8H)-yl)-N-(1-(2-methyl-3-(trifluoromethyl)phenyl)ethyl)quinolin-4-amine] | > 100 nM | 150 to 500 nM | 100 to 500 nM |
| Cc1c([C@@H](C)Nc2ccnc3ccc(N4CC5CCC(C4)N5)cc23)cccc1C(F)(F)F [Compound 59, 6-(3,8-diazabicyclo[3.2.1]octan-3-yl)-N-((R)-1-(2-methyl-3-(trifluoromethyl)phenyl)ethyl)quinolin-4-amine] | 10 to 100 nM | > 500 nM | 100 to 500 nM |
| Cc1c([C@@H](C)Nc2ccnc3ccc(N4CCNC[C@@H]4C)cc23)cccc1C(F)(F)F [Compound 60, N-((R)-1-(2-methyl-3-(trifluoromethyl)phenyl)ethyl)-6-((S)-2-methylpiperazin-1-yl)quinolin-4-amine] | 10 to 100 nM | > 500 nM | 100 to 500 nM |
